Test results reported in patent publication US20250145715A1, “B7-H3 TARGETING FUSION PROTEINS AND METHODS OF USE THEREOF” (GT Biopharma, Inc., priority 2021, published 2025).

Key:
Type in all cases: cell-based, human
H929 cells = test: IncuCyte Zoom NK cell killing of H929
Excerpt: FIGS. 8A-8D illustrate the ability of peripheral blood NK cells with or without B7-H3-TriKE to kill myeloma cells in live imaging IncuCyte Zoom assays. FIG. 8A is a graph showing the effects with effector:target (E:T) ratios of 2:1 and 4:1 on H929 cells. FIG. 8B is a graph showing the effects with effector:target (E:T) ratios of 2:1 and 4:1 on MM1S cells. FIG. 8C is a graph showing the effects with effector:target (E:T) ratios of 2:1 and 4:1 on RPMI-8226 cells. FIG. 8D is a graph showing the effects with effector:target (E:T) ratios of 2:1 and 4:1 on U266 cells.
FIGS. 9A-9D illustrate the efficacy of B7-H3-TriKE with the proteasome inhibitor bortezomib (10 nM) and the immunomodulatory drug lenalidomide (5 μM). FIG. 9A is a graph showing the effect of the combination therapy on H929 cells after 48 hours. FIG. 9B is a graph showing the effect of the combination therapy on RPMI-8226 cells after 48 hours. FIG. 9C is a graph showing the effect of the combination therapy on MM1S cells after 48 hours. FIG. 9D is a graph showing the effect of the combination therapy on U266 cells after 48 hours.
The ability of peripheral blood NK cells with or without B7-H3-TriKE to kill myeloma cells was compared in live imaging IncuCyte Zoom assays with escalating doses of TriKE. Maximal killing occurred with 3 nM concentration.
The efficacy of B7-H3-TriKE with the proteasome inhibitor bortezomib (10 nM) and the immunomodulatory drug lenalidomide (5 μM) was also tested. Cytotoxicity curves were compared by repeated measures ANOVA and performed in triplicate.

[1] = tested on: OVCAR3 ovarian cancer cells; test: NK cell CD107a / IFNγ flow cytometry against OVCAR3; details: 30 nM, E:T 2:1, 4 hrs; vs no treatment and rhIL-15 alone
Protocol: Healthy donor or ovarian cancer PBMC cells were incubated with ovarian tumor targets at 2:1 E:T ratio for 4 hrs with 30 nM TriKE or control condition. FIG. 30A is a graph illustrating pooled proportion of NK cells from healthy donors expressing CD107a+ (degranulation) against OVCAR8 targets (N=8). FIG. 30B is a graph illustrating pooled proportion of NK cells from healthy donors expressing IFNγ cytokine production against OVCAR8 targets (N=8). FIG. 30C is a graph illustrating pooled proportion of NK cells from healthy donors expressing CD107a+ (degranulation) against OVCAR3 targets (N=4). […] FIG. 30I is a graph illustrating that tumor killing was evaluated using IncuCyte imaging assay. […] The percentage of Live (Nuclight Red+Caspase 3/7−) tumor cells was quantified over a 48-h period and normalized to tumor alone. Readings were obtained every 15 min (representative of four separate experiments). * p<0.05, ** p<0.01, *** p<0.001, and **** p<0.0001.
ADCC was measured in a flow cytometry assay by evaluating degranulation via CD107a (lysosomal-associated membrane protein LAMP-1) and intracellular IFNγ production. […] Samples were washed and evaluated in an LSRII flow cytometer (BD Biosciences, San Jose, CA, USA).
The ability of cam1615B7-H3 TriKE to mediate NK cell activity against ovarian cancer cells was evaluated. […]

lung cancer cell lines = test: NK cell activation against lung cancer cell lines vs K562 / Raji
Protocol: ADCC was measured in a flow cytometry assay by evaluating degranulation via CD107a (lysosomal-associated membrane protein LAMP-1) and intracellular IFNγ production. Upon thawing, normal donor and patient-derived PBMCs or ascites cells were rested overnight (37° C., 5% CO2) in RPMI 1640 media supplemented with 10% fetal calf serum (RPMI-10). The next morning, they were suspended with tumor-target cells or media after washing twice with RPMI-10. Cells were then incubated with TriKEs or controls for 10 min at 37° C. Fluorescein isothiocyate (FITC)-conjugated anti-human CD107a monoclonal antibody (BD Biosciences, San Jose, CA, USA) was then added. Following an hour 37° C. incubation, GolgiStop (1:1500, BD Biosciences) and GolgiPlug (1:1000, BD Biosciences) were added for 3 h. After washing with phosphate buffered saline, the cells were stained with PE/Cy 7-conjugated anti-CD56 mAb, APC/Cy 7-conjugated anti-CD16 mAb, and PE-CF594-conjugated anti-CD3 mAb (BioLegend, San Diego, CA, USA). Cells were incubated for 15 min at 4° C., washed, and fixed with 2% paraformaldehyde. Cells were then permeabilized using an intracellular perm buffer (BioLegend) to evaluate production of IFNγ through detection via aBV650 conjugated anti-human IFNγ antibody (BioLegend). Samples were washed and evaluated in an LSRII flow cytometer (BD Biosciences, San Jose, CA, USA). […]

Row | Substance | NK cell killing of H929 (H929 cells; E:T 2:1) | NK cell killing of H929 (H929 cells; E:T 4:1) | NK cell degranulation against OVCAR3 [1] | NK cell intracellular IFNγ production against OVCAR3 [1] | NK cell degranulation and IFNγ production against lung cancer cells vs K562 targets alone (lung cancer cell lines) | B7-H3 specificity of activation against lung cancer cell lines (lung cancer cell lines; vs B7-H3− Raji cells)
1 | B7-H3 TriKE: camelid nanobodies targeting CD16 and B7-H3 joined by IL-15 and two linkers; sequence table equates the name with cam1615B7-H3 | more potently killed | no difference in killing | – | – | – | –
2 | cam1615B7-H3: second-generation TriKE: humanized camelid anti-CD16 VHH, human wild-type IL-15, anti-B7-H3 mAb 376.96 scFv; SEQ ID NO:1 | – | – | robust | robust | higher than that seen when NK cells are incubated with K562 targets alone | specific to B7-H3 expression
